Like-named read-outs stand apart in the source and are kept apart here.
How the values were obtained:
B1-AR = biological target: T1, B1-AR (Homo sapiens, UniProt P08588); assay: cAMP Gs dynamic HTRF assay, cells expressing beta-adrenergic receptor (CHO-K1), B1-AR; type: cell-based; details: for EC50: cAMP HTRF, read-out: pEC50 [B1-AR] (converted); for Emax: relative to full agonist isoproterenol, read-out: Emax (% iso) (%) [B1-AR]
T1 construct: expressed in transfected cells; host or cells: CHO-K1

B2-AR = biological target: T2, B2-AR (Homo sapiens, UniProt P07550); assay: cAMP Gs dynamic HTRF assay, cells expressing beta-adrenergic receptor (CHO-K1), B2-AR; type: cell-based; details: for EC50: cAMP HTRF, read-out: pEC50 [B2-AR] (converted); for Emax: relative to full agonist isoproterenol, read-out: Emax (% iso) (%) [B2-AR]
T2 construct: expressed in transfected cells; host or cells: CHO-K1
T2 sequence (P07550 whole entry, species assumed): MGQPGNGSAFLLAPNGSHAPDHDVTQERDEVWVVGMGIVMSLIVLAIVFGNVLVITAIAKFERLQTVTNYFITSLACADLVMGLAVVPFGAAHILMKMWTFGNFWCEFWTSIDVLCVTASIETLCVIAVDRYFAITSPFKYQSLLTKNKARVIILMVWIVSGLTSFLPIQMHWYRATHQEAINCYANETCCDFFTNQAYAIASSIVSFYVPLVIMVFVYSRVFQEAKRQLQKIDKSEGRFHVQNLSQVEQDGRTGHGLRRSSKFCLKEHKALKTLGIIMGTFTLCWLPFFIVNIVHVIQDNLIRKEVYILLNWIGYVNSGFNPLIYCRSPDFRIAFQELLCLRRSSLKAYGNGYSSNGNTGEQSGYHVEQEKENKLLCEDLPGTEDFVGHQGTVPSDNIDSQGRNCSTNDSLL

T1 sequence (P08588 whole entry, species assumed): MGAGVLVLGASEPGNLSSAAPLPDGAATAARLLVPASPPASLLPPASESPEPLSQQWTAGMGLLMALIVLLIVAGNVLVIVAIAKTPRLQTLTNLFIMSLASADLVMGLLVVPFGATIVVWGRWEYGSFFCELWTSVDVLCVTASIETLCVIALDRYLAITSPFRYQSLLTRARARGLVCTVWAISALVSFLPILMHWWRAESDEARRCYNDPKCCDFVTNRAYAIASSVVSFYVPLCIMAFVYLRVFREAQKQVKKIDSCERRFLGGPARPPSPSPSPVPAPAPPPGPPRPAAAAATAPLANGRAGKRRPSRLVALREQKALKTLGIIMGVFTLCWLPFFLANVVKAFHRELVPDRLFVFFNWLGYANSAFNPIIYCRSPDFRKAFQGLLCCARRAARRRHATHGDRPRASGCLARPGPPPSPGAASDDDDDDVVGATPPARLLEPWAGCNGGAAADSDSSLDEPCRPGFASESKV

Row | Emax (B2-AR; CHO-K1 cells) [%] | SMILES | EC50 (B1-AR) [nM] | Emax (B1-AR) [%] | EC50 (B2-AR; CHO-K1 cells) [nM] | Emax (B2-AR; CHO-K1, CHO-K1 cells) [%]
1 | > 90 | CC(C)(C)CNC[C@H](O)c1cccc2[nH]ncc12 [I-88] | 100 to 1000 | 70 to 90 | < 10 | 
2 |  | Cc1ncccc1[C@@H](O)CNC1CCC1 [I-187] | > 1000 | 70 to 90 | 100 to 1000 | 70 to 90
3 | > 90 | CC(C)(NC[C@H](O)c1cc(C#N)cc2[nH]ncc12)C1CC1 [I-1] | 100 to 1000 | > 90 | 10 to 100 | 
4 |  | CC(C)CNC[C@H](O)c1cccc2[nH]ncc12 [I-133] | 10 to 100 | 70 to 90 | < 10 | > 90
5 |  | CC(C)(CO)NC[C@H](O)c1cc(C#N)cc2[nH]ncc12 [I-151] | 100 to 1000 | 70 to 90 | 100 to 1000 | > 90
6 | > 90 | O[C@@H](CNCC1CC1)c1cccc2[nH]ncc12 [I-76] | < 10 | 70 to 90 | < 10 | 
7 | 70 to 90 | CC(C)(C)NC[C@H](O)c1cccc2[nH]c(=O)[nH]c12 [I-94] | 100 to 1000 | 70 to 90 | 100 to 1000 | 
8 |  | O[C@@H](CNC1CC1)c1ccc(Cl)c2[nH]ncc12 [I-121] | < 10 | 50 to 70 | < 10 | 70 to 90
9 | 50 to 70 | Cc1ncccc1[C@@H](O)CNC1CC(F)(F)C1 [I-181] | > 1000 | < 50 | > 1000 | 
10 | > 90 | CCC(C)(CC)NC[C@H](O)c1cccc2[nH]nc(F)c12 [I-30] | < 10 | > 90 | < 10 | 
11 |  | CCC(C)(C)NC[C@H](O)c1cccc2[nH]nc(F)c12 [I-48] | < 10 | > 90 | < 10 | > 90
12 | > 90 | CC(C)NC[C@H](O)c1cc(C#N)cc2[nH]ncc12 [I-161] | 10 to 100 | > 90 | 10 to 100 | 
13 |  | Cc1cc([C@@H](O)CNC(C)(C)C)c2cn[nH]c2n1 [I-67] | 10 to 100 | > 90 | < 10 | > 90
14 |  | Cn1ncc2c([C@@H](O)CNC(C)(C)C)cc(F)cc21 [I-57] | 10 to 100 | 70 to 90 | < 10 | 50 to 70
15 | 70 to 90 | Cc1n[nH]c2cccc([C@@H](O)CNC3CCC3)c12 [I-166] | 100 to 1000 | 50 to 70 | 10 to 100 | 
16 | > 90 | CC(C)NC[C@H](O)c1cccc2[nH]nc(F)c12 [I-139] | < 10 | > 90 | < 10 | 
17 |  | CC(C)(C)NC[C@@H](O)c1cccc(Br)n1 [I-143] | 100 to 1000 | 70 to 90 | > 1000 | 50 to 70
18 |  | Cc1nc(N)c(Cl)cc1[C@@H](O)CNC1CC(F)(F)C1 [I-178] | > 1000 | 50 to 70 | 100 to 1000 | > 90
19 |  | CC(C)NC[C@H](O)c1cccc2[nH]cc(F)c12 [I-112] | < 10 | > 90 | < 10 | > 90
20 | 70 to 90 | Cc1cc([C@@H](O)CNC2CC2)c2cn[nH]c2c1 [I-135] | < 10 | 70 to 90 | < 10 | 
21 |  | CCC(C)(C)NC[C@H](O)c1cc(Cl)c(N)nc1C [I-171] | 10 to 100 | 70 to 90 | < 10 | > 90
22 |  | CC(C)[C@@H](C)NC[C@H](O)c1ccc(F)c2[nH]ncc12 [I-31] | 10 to 100 | 70 to 90 | < 10 | > 90
23 |  | CCc1cc([C@@H](O)CNC(C)(C)C)c2cn[nH]c2c1 [I-105] | > 1000 | < 50 | 100 to 1000 | < 50
24 |  | CCC(CC)NC[C@H](O)c1ccc(F)c2[nH]ncc12 [I-37] | 10 to 100 | 70 to 90 | < 10 | 70 to 90

Row | Emax (B2-AR; CHO-K1 cells) [%] | SMILES | EC50 (B1-AR) [nM] | Emax (B1-AR) [%] | EC50 (B2-AR; CHO-K1 cells) [nM] | Emax (B2-AR; CHO-K1, CHO-K1 cells) [%]
25 | 70 to 90 | CC[C@H](C)NC[C@H](O)c1cccc2[nH]nc(F)c12 [I-35] | < 10 | 70 to 90 | < 10 | 
26 |  | CC1(NC[C@H](O)c2cccc3[nH]nc(Cl)c23)CC1 [I-100] | < 10 | 70 to 90 | < 10 | > 90
27 |  | CC1(NC[C@H](O)c2cc(C#N)cc3[nH]ncc23)CC1 [I-155] | 100 to 1000 | 70 to 90 | 10 to 100 | > 90
28 |  | CC(C)CNC[C@H](O)c1ccc2[nH]cc(F)c2c1 [I-124] | > 1000 | 70 to 90 | 100 to 1000 | > 90
29 |  | CC(C)(CO)NC[C@H](O)c1ccc(Cl)c2[nH]ncc12 [I-116] | 10 to 100 | 70 to 90 | < 10 | 70 to 90
30 | 70 to 90 | Cc1n[nH]c2cccc([C@@H](O)CNC3(C)CC3)c12 [I-169] | 100 to 1000 | 70 to 90 | 10 to 100 | 
31 | 70 to 90 | CC1(N[C@H](CO)c2cncc3[nH]ncc23)CC1 [I-148] | > 1000 | 70 to 90 | > 1000 | 
32 |  | CC(C)(C)CNC[C@H](O)c1cccc2[nH]nc(F)c12 [I-90] | 100 to 1000 | 70 to 90 | 10 to 100 | > 90
33 | < 50 | Cc1nc(N)c(Cl)cc1[C@@H](CO)NC1CC(F)(F)C1 [I-186] | > 1000 | < 50 | > 1000 | 
34 |  | CCC(C)(C)NC[C@H](O)c1cc(C#N)cc2[nH]ncc12 [I-52] | 100 to 1000 | 70 to 90 | 10 to 100 | > 90
35 | < 50 | Cc1nc(N)c(F)cc1[C@@H](CO)NC(C)(C)C [I-179] | > 1000 | < 50 | > 1000 | 
36 | > 90 | O[C@@H](CNC1CC1)c1cncc2[nH]ncc12 [I-164] | 100 to 1000 | 70 to 90 | 100 to 1000 | 
37 |  | COc1cc([C@@H](O)CNC(C)(C)C)c2cn[nH]c2c1F [I-59] | 100 to 1000 | < 50 | 10 to 100 | < 50
38 |  | C[C@H](NC[C@H](O)c1cc(C#N)cc2[nH]ncc12)C(C)(C)C [I-5] | > 1000 | 50 to 70 | 100 to 1000 | 70 to 90
39 |  | CC(C)(C)C(C)(C)NC[C@H](O)c1cccc2[nH]ncc12 [I-7] | 100 to 1000 | > 90 | < 10 | > 90
40 | > 90 | N#Cc1cc([C@@H](O)CNC2CC2)c2cn[nH]c2c1 [I-153] | 100 to 1000 | 70 to 90 | 100 to 1000 | 
41 |  | CC(C)(C)NC[C@H](O)c1cccc2c(F)n[nH]c12 [I-85] | 100 to 1000 | 70 to 90 | 100 to 1000 | 50 to 70
42 |  | CCC(CC)NC[C@H](O)c1cc(F)cc2[nH]ncc12 [I-44] | < 10 | > 90 | < 10 | 70 to 90
43 |  | CC(C)(C)NC[C@@H](O)c1ccc(N)nn1 [I-141] | > 1000 | > 90 | 100 to 1000 | > 90
44 | 50 to 70 | CC(C)(C)NC[C@H](O)c1ccc2nccnc2c1 [I-83] | 10 to 100 | 70 to 90 | 10 to 100 | 
45 | > 90 | CC(C)[C@@H](C)NC[C@H](O)c1cc(F)cc2[nH]ncc12 [I-27] | < 10 | > 90 | < 10 | 
46 | > 90 | CC(C)(CO)NC[C@H](O)c1cncc2[nH]ncc12 [I-162] | > 1000 | > 90 | 100 to 1000 | 
47 | > 90 | CC(C)CNC[C@H](O)c1cccc2[nH]nc(F)c12 [I-138] | 10 to 100 | 70 to 90 | < 10 | 

Reference: patent publication US20240270701A1, “BETA ADRENERGIC AGONIST AND METHODS OF USING THE SAME” (Curasen Therapeutics, Inc., priority 2021, published 2024)
